From patent US20200031825A1, “HETEROAROMATIC-FUSED IMIDAZOLYL AMIDES, COMPOSITIONS AND USES THEREOF AS STING AGONISTS” (Trillium Therapeutics Inc., priority 2018, published 2020)
Read-outs that look alike come from different tables or passages of the source.

Legend:
Assay type in all cases: cell-based
[1] = tested on: human dendritic cells (h-DCs); test: Cellular Functional Assay II: secreted IFN-β from human dendritic cells; details: h-DC
Method: (§1) Activation of STING in primary cells was determined by measuring levels of secreted IFN-β from human monocyte-derived macrophages (h-MDMs)/dendritic cells (h-DCs) and/or mouse dendritic cells (m-DCs) after treatment with A.
(§2) Human CD14+ cells were first isolated from human peripheral blood mononuclear cells (PBMCs) with Stemcell Easysep Monocyte Isolation™ kit. Human CD14+ cells were kept in conditioned media for 7-12 days to generate h-MDMs and h-DCs before use. After harvesting from C57BL/6 mouse femurs, bone marrow cells were culture in conditioned media for 7 days to generate m-DCs before use.
(§3) The Culture conditions for the various types of cells whereas noted in Table 2:
(§4) 0.5×10^6 cells in 50 ul buffer (50 mM HEPES, pH7.0; 100 mM KCl; 3 mM MgCl2, 0.1 mM DTT; 85 mM Sucrose; 0.2% BSA, 1 mM ATP) in 96-well round bottom plate. Compound (formulated in DMSO) or DMSO (control) were added into each well and the plate incubate at 37° C. for 30 minutes. Cells were washed twice with 100 uL of fresh media and incubated at 37° C. for an additional 6 hours. After 6 hour of incubation, the supernatant was collected and a Cytometry Bead Assay™ (CBA, BioLegend) was used to measure […] levels.

[2] = tested on: mouse dendritic cells (m-DCs); test: Cellular Functional Assay II: secreted IFN-β from mouse dendritic cells; details: m-DC
Method: as §1, §2, §3, §4

[3] = tested on: human monocyte-derived macrophages (h-MDMs); test: Cellular Functional Assay II: secreted IFN-β from human monocyte-derived macrophages; details: h-MDM
Method: as §1, §2, §3, §4

hSTING-HAQ = hSTING-HAQ (Homo sapiens, UniProt Q86WV6, G230A/H232R/R293Q/R71H); test: Cellular Functional Assay I: ISRE-SEAP reporter in HEK-293T-Dual Null cells transfected with hSTING-HAQ; details: HEK-293T-Dual Null, hSTING-HAQ
hSTING-Q = target: T1, hSTING-Q (Homo sapiens, UniProt Q86WV6, R293Q); test: Cellular Functional Assay I: ISRE-SEAP reporter, hSTING-Q allele
T1 construct: expressed in transfected cells

hSTING-wt = hSTING-wt (Homo sapiens, UniProt Q86WV6); test: Cellular Functional Assay I: ISRE-SEAP reporter in HEK-293T-Dual Null cells transfected with hSTING-wt; details: HEK-293T-Dual Null, hSTING-wt
hSTING-H232 = hSTING-H232 (Homo sapiens, UniProt Q86WV6); test: Cellular Functional Assay I: ISRE-SEAP reporter in HEK-293T-Dual Null cells transfected with hSTING-H232; details: HEK-293T-Dual Null, hSTING-H232
hSTING-AQ = target: T2, hSTING-AQ (Homo sapiens, UniProt Q86WV6, G230A/R293Q); test: Cellular Functional Assay I: ISRE-SEAP reporter, hSTING-AQ allele
T2 construct: expressed in transfected cells

mSTING-wt = target: T3, mSTING-wt (Mus musculus, UniProt Q3TBT3); test: Cellular Functional Assay I: ISRE-SEAP reporter in HEK-293T-Dual Null cells transfected with mouse STING; details: SEAP reporter, HEK-293T-Dual Null, mSTING-wt; read-out: EC50 mSTING-wt
T3 sequence (Q3TBT3 1-378): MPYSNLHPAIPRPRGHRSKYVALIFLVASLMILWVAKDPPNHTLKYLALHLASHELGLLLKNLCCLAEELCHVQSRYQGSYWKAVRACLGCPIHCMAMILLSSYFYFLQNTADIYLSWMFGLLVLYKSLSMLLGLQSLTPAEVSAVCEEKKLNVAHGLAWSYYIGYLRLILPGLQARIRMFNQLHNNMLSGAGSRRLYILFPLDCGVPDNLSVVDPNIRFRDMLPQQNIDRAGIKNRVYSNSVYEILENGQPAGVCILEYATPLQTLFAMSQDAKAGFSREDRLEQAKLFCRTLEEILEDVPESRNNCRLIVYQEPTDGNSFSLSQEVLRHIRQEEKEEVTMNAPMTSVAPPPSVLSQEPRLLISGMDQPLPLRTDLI

human PBMCs = test: Cellular Functional Assay III: IFN-β production from human PBMCs; details: PBMC
Method: Frozen human PBMCs (BioIVT Inc.) were thawed first in a 37° C. water bath, then washed with RPMI/10% FBS/2 mM EDTA medium twice before establishing a viable cell count by Trypan Blue. The final cell density for each donor was 5×10^6 cells per well with RPMI/10% FBS medium in a 96 well u-bottom plate.
Human PBMCs were then incubated with testing compounds with indicated concentrations and control for 4 hours at 37° C. in cell culture incubator. After incubation, supernatant was collected and used for measuring induced cytokine level by cytometric bead array analysis.

[4] = Donor 1, 4 hours, read-out: Potency (IFN-β production) in Human PBMCs (EC50s) Donor 1
[5] = Donor 2, 4 hours, read-out: Potency (IFN-β production) in Human PBMCs (EC50s) Donor 2
[6] = Donor 3, 4 hours, read-out: Potency (IFN-β production) in Human PBMCs (EC50s) Donor 3
[7] = Donor 4, 4 hours, read-out: Potency (IFN-β production) in Human PBMCs (EC50s) Donor 4

hSTING-H232, sequence (Q86WV6 whole entry): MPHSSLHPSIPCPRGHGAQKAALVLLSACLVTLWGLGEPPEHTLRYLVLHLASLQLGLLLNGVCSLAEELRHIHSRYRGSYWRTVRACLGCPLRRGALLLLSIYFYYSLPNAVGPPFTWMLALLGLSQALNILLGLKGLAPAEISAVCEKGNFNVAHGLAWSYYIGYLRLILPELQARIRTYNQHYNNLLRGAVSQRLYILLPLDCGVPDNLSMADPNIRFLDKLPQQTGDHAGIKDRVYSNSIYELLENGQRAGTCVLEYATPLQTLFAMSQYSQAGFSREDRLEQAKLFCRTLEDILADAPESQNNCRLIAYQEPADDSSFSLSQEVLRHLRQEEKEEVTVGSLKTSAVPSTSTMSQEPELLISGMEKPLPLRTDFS
hSTING-HAQ, sequence (Q86WV6 whole entry R71H/G230A/H232R/R293Q): as the sequence (Q86WV6 whole entry) above, with R71H, G230A, H232R, R293Q counted along it
hSTING-wt, sequence (Q86WV6 whole entry H232R): as the sequence (Q86WV6 whole entry) above, with H232R counted along it
T2 sequence (Q86WV6 whole entry G230A/H232R/R293Q): as the sequence (Q86WV6 whole entry) above, with G230A, H232R, R293Q counted along it
T1 sequence (Q86WV6 whole entry R293Q): as the sequence (Q86WV6 whole entry) above, with R293Q counted along it

Row | Structure (SMILES) | EC50 (hSTING-HAQ) [nM] | EC50 (hSTING-Q) [nM] | EC50 (hSTING-wt) [nM] | EC50 (hSTING-H232) [nM] | EC50 (hSTING-AQ) [nM] | EC50 (mSTING-wt) [nM] | IFN-β level ([1]; 0.1 uM) | IFN-β level ([1]; 10 uM) | IFN-β level ([2]; 0.1 uM) [pg/mL] | IFN-β level ([2]; 1 uM) | IFN-β level ([2]; 10 uM) | IFN-β level ([3]; 0.1 uM) | IFN-β level ([3]; 1 uM) | IFN-β level ([3]; 10 uM) | EC50 (human PBMCs; [4]) [nM] | EC50 (human PBMCs; [5]) [nM] | EC50 (human PBMCs; [6]) [nM] | EC50 (human PBMCs; [7]) [nM]
1 | Nc1nc2c(ncn2[C@@H]2O[C@@H]3COP(=O)(O)O[C@H]4[C@@H](O)[C@H](n5cnc6c(N)ncnc65)O[C@@H]4COP(=O)(O)O[C@@H]2[C@@H]3O)c(=O)[nH]1 [2′3-cGAMP, reference compound] |  |  |  |  |  |  | <10 pg/mL | <50 pg/mL | <300 | <1,000 pg/ml | <3,000 pg/ml | <10 pg/mL | <20 pg/mL | <50 pg/mL |  |  |  | 
2 | CCn1nc(C)cc1C(=O)Nc1nc2cc(C(N)=O)cnc2n1C/C=C/Cn1c(NC(=O)c2cc(C)nn2CC)nc2cc(C(N)=O)cc(OC)c21 [Compound A, 3-[(E)-4-[5-carbamoyl-2-[(2-ethyl-5-methyl-pyrazole-3-carbonyl)amino]-7-methoxy-benzimidazol-1-yl]but-2-enyl]-2-[(2-ethyl-5-methyl-pyrazole-3-carbonyl)amino]imidazo[4,5-b]pyridine-6-carboxamide] | 1 to 500 | 1 to 500 | < 1 | < 1 | 1 to 500 | < 1 | >5,000 pg/ml | >15,000 pg/ml | >100 | >10,000 pg/ml | >50,000 pg/ml | >1,000 pg/ml | >1,000 pg/ml | >1,000 pg/ml |  |  |  | 
3 | CCn1nc(C)cc1C(=O)Nc1nc2cc(C(N)=O)cnc2n1C/C=C/Cn1c(NC(=O)c2cc(C)nn2CC)nc2cc(C(N)=O)cc(OCCCN3CCOCC3)c21 [Compound T, 3-[(E)-4-[5-carbamoyl-2-[(2-ethyl-5-methyl-pyrazole-3-carbonyl)amino]-7-(3-morpholinopropoxy)benzimidazol-1-yl]but-2-enyl]-2-[(2-ethyl-5-methyl-pyrazole-3-carbonyl)amino]imidazo[4,5-b]pyridine-6-carboxamide] | 1 to 500 | 1 to 500 | 1 to 500 | 1 to 500 | 1 to 500 | 1 to 500 |  |  |  |  |  |  |  |  | 100 to 500 | < 100 | < 100 | 100 to 500
4 | CCn1nc(C)cc1C(=O)Nc1nc2cc(C(N)=O)cnc2n1C/C=C/Cn1c(NC(=O)c2cc(C)nn2CC)nc2cc(C(N)=O)cc(OCCCNCCOC(F)F)c21 [Compound U, 3-[(E)-4-[5-carbamoyl-7-[3-[2-(difluoromethoxy)ethylamino]propoxy]-2-[(2-ethyl-5-methyl-pyrazole-3-carbonyl)amino]benzimidazol-1-yl]but-2-enyl]-2-[(2-ethyl-5-methyl-pyrazole-3-carbonyl)amino]imidazo[4,5-b]pyridine-6-carboxamide] | 1 to 500 | 1 to 500 | 1 to 500 | 1 to 500 | 1 to 500 | 1 to 500 |  |  |  |  |  |  |  |  |  |  |  | 

More lines, main results first:

Row | EC50 (hSTING-HAQ) [nM] | EC50 (hSTING-Q) [nM] | EC50 (hSTING-wt) [nM] | EC50 (hSTING-H232) [nM] | EC50 (hSTING-AQ) [nM] | EC50 (mSTING-wt) [nM] | Structure (SMILES) | IFN-β level ([1]; 0.1 uM) | IFN-β level ([1]; 10 uM) | IFN-β level ([2]; 0.1 uM) [pg/mL] | IFN-β level ([2]; 1 uM) | IFN-β level ([2]; 10 uM) | IFN-β level ([3]; 0.1 uM) | IFN-β level ([3]; 1 uM) | IFN-β level ([3]; 10 uM) | EC50 (human PBMCs; [4]) [nM] | EC50 (human PBMCs; [5]) [nM] | EC50 (human PBMCs; [6]) [nM] | EC50 (human PBMCs; [7]) [nM]
5 | 1 to 500 | 1 to 500 | 1 to 500 | 1 to 500 | 1 to 500 | 1 to 500 | CCn1nc(C)cc1C(=O)Nc1nc2cc(C(N)=O)cnc2n1C/C=C/Cn1c(NC(=O)c2cc(C)nn2CC)nc2cc(C(N)=O)cc(OCCCN(C)CCOC)c21 [Compound V, 3-[(E)-4-[5-carbamoyl-2-[(2-ethyl-5-methyl-pyrazole-3-carbonyl)amino]-7-[3-[2-methoxyethyl(methyl)amino]propoxy]benzimidazol-1-yl]but-2-enyl]-2-[(2-ethyl-5-methyl-pyrazole-3-carbonyl)amino]imidazo[4,5-b]pyridine-6-carboxamide] |  |  |  |  |  |  |  |  |  |  |  | 
6 | 1 to 500 | 1 to 500 | 1 to 500 | 1 to 500 | 1 to 500 | 1 to 500 | [2H]C1([2H])OC([2H])([2H])C([2H])([2H])N(CCCOc2cc(C(N)=O)cc3nc(NC(=O)c4cc(C)nn4CC)n(C/C=C/Cn4c(NC(=O)c5cc(C)nn5CC)nc5cc(C(N)=O)cnc54)c23)C1([2H])[2H] [Compound W, 3-[(E)-4-[5-carbamoyl-2-[(2-ethyl-5-methyl-pyrazole-3-carbonyl)amino]-7-[3-(2,2,3,3,5,5,6,6-octadeuteriomorpholin-4-yl)propoxy]benzimidazol-1-yl]but-2-enyl]-2-[(2-ethyl-5-methyl-pyrazole-3-carbonyl)amino]imidazo[4,5-b]pyridine-6-carboxamide] |  |  |  |  |  |  |  |  | 100 to 500 | 100 to 500 | < 100 | 100 to 500
7 | 1 to 500 | 1 to 500 | 1 to 500 | 1 to 500 | 1 to 500 | 1 to 500 | CCn1nc(C)cc1C(=O)Nc1nc2cc(C(N)=O)cnc2n1C/C=C/Cn1c(NC(=O)c2cc(C)nn2CC)nc2cc(C(N)=O)cc(OCCCN3CCN(C(C)=O)CC3)c21 [Compound X, 3-[(E)-4-[7-[3-(4-acetylpiperazin-1-yl)propoxy]-5-carbamoyl-2-[(2-ethyl-5-methyl-pyrazole-3-carbonyl)amino]benzimidazol-1-yl]but-2-enyl]-2-[(2-ethyl-5-methyl-pyrazole-3-carbonyl)amino]imidazo[4,5-b]pyridine-6-carboxamide] |  |  |  |  |  |  |  |  | 100 to 500 | 100 to 500 | 100 to 500 | 100 to 500
8 | 1 to 500 | 1 to 500 | < 1 | < 1 | 1 to 500 | 1 to 500 | CCn1nc(C)cc1C(=O)Nc1nc2cc(C(N)=O)cnc2n1C/C=C/Cn1c(NC(=O)c2cc(C)nn2CC)nc2cc(C(N)=O)cc(OCCCN3CCC[C@H]3COC(F)F)c21 [Compound Y, 3-[(E)-4-[5-carbamoyl-7-[3-[(2S)-2-(difluoromethoxymethyl)pyrrolidin-1-yl]propoxy]-2-[(2-ethyl-5-methyl-pyrazole-3-carbonyl)amino]benzimidazol-1-yl]but-2-enyl]-2-[(2-ethyl-5-methyl-pyrazole-3-carbonyl)amino]imidazo[4,5-b]pyridine-6-carboxamide] |  |  |  |  |  |  |  |  | < 100 | < 100 | < 100 | < 100
9 | 1 to 500 | 1 to 500 | 1 to 500 | 1 to 500 | 1 to 500 | 1 to 500 | CCn1nc(C)cc1C(=O)Nc1nc2cc(C(N)=O)cnc2n1C/C=C/Cn1c(NC(=O)c2cc(C)nn2CC)nc2cc(C(N)=O)cc(OCCCN3CCCOCC3)c21 [Compound Z, 3-[(E)-4-[5-carbamoyl-2-[(2-ethyl-5-methyl-pyrazole-3-carbonyl)amino]-7-[3-(1,4-oxazepan-4-yl)propoxy]benzimidazol-1-yl]but-2-enyl]-2-[(2-ethyl-5-methyl-pyrazole-3-carbonyl)amino]imidazo[4,5-b]pyridine-6-carboxamide] |  |  |  |  |  |  |  |  |  |  |  | 
